Measurements reported in patent US9174992B2, “Heterobicyclic compounds” (Amgen Inc., priority 2012, dated 2015).

Biological target: PDE10A (UniProt Q9Y233)
Test: PDE10 enzyme inhibition, IMAP TR-FRET assay (Example A, MPDE10A7 Enzyme Activity and Inhibition)
Type: biochemical
Details: approximate IC50 value, Table 10
Method in brief: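 Compounds were preincubated 60 min at room temperature with PDE10A enzyme or tissue homogenate, then fluorescein-labeled cAMP or cGMP was added for 90 min. After stopping with IMAP binding reagents, TR-FRET was read and IC50s were fitted with a four-parameter logistic equation.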

Compound	IC50 [nM]
CC1(C)C(=O)N([C@H]2C[C@@H](NC(=O)c3nc4ccccc4[nH]3)C2)c2nccnc21 [Example 217, N-(cis-3-(7,7-dimethyl-6-oxo-6,7-dihydro-5H-pyrrolo[2,3-b]pyrazin-5-yl)cyclobutyl)-1H-benzo[d]imidazolE-2-carboxamide]	38.3
Cc1ccc(N[C@H]2CC[C@@H](N3C(=O)C(C)(C)c4nccnc43)CC2)nc1 [Example 218, 7,7-dimethyl-5-(cis-4-((5-methylpyridin-2-yl)amino)cyclohexyl)-5H-pyrrolo[2,3-b]pyrazin-6(7H)-one]	1410
O=c1n(C2CC2)c2nccnc2n1[C@H]1C[C@H](Nc2ncc3ccccc3n2)C1 [Example 219, 1-cyclopropyl-3-(trans-3-(quinazolin-2-ylamino)cyclobutyl)-1H-imidazo[4,5-b]pyrazin-2(3H)-one]	554
O=c1n(C2CC2)c2nccnc2n1[C@H]1C[C@H](Nc2nc3ccccc3o2)C1 [Example 220, 1-(trans-3-(benzo[d]oxazol-2-ylamino)cyclobutyl)-3-cyclopropyl-1H-imidazo[4,5-b]pyrazin-2(3H)-one]	2.35
O=c1n(C2CC2)c2nccnc2n1[C@H]1C[C@H](Nc2ccc(Cl)cn2)C1 [Example 221, 1-(trans-3-((5-chloropyridin-2-yl)amino)cyclobutyl)-3-cyclopropyl-1H-imidazo[4,5-b]pyrazin-2(3H)-one]	2.77
O=c1n(C2CC2)c2nccnc2n1[C@H]1C[C@H](Nc2nc3cc(F)ccc3s2)C1 [Example 222, 1-cyclopropyl-3-(trans-3-((5-fluorobenzo[d]thiazol-2-yl)amino)cyclobutyl)-1H-imidazo[4,5-b]pyrazin-2(3 H)-one]	7.61
O=c1n(C2CC2)c2nccnc2n1[C@H]1C[C@H](Nc2ccc3cccnc3n2)C1 [Example 223, 1-(trans-3-((1,8-naphthyridin-2-yl)amino)cyclobutyl)-3-cyclopropyl-1H-imidazo[4,5-b]pyrazin-2(3 H)-one]	18.4
COc1ccc2nc(N[C@H]3C[C@H](n4c(=O)n(C5CC5)c5nccnc54)C3)sc2c1 [Example 224, 1-cyclopropyl-3-(trans-3-((6-methoxybenzo[d]thiazol-2-yl)amino)cyclobutyl)-1H-imidazo[4,5-b]pyrazin-2(3 H)-one]	57.7
COc1ccc2nc(N[C@H]3C[C@H](n4c(=O)n(C5CC5)c5nccnc54)C3)sc2c1 [Example 225, 1-cyclopropyl-3-(trans-3-((6-methoxy-1,3-benzothiazol-2-yl)amino)cyclobutyl)-1,3-dihydro-2H-imidazo[4,5-b]pyrazin-2-one]	10.8
Cn1c(N[C@H]2C[C@H](n3c(=O)n(C4CC4)c4nccnc43)C2)nc2ccccc21 [Example 226, 1-cyclopropyl-3-(trans-3-((1-methyl-1H-benzo[d]imidazol-2-yl)amino)cyclobutyl)-1H-imidazo[4,5-b]pyrazin-2(3H)-one]	1.2
O=c1n(C2CC2)c2nccnc2n1[C@H]1CC[C@H](Nc2ccc3ncccc3n2)CC1 [Example 227, 1-(trans-4-((1,5-naphthyridin-2-yl)amino)cyclohexyl)-3-cyclopropyl-1H-imidazo[4,5-b]pyrazin-2(3H)-one]	1.87
O=c1n(C2CC2)c2nccnc2n1[C@H]1C[C@H](Nc2ccc3ncccc3n2)C1 [Example 228, 1-(trans-3-((1,5-naphthyridin-2-yl)amino)cyclobutyl)-3-cyclopropyl-1H-imidazo[4,5-b]pyrazin-2(3H)-one]	246
O=c1n(C2CC2)c2nccnc2n1[C@H]1C[C@H](Nc2nc3ccc(Cl)cc3o2)C1 [Example 229, 1-(trans-3-((6-chlorobenzo[d]oxazol-2-yl)amino)cyclobutyl)-3-cyclopropyl-1H-imidazo[4,5-b]pyrazin-2(3H)-one]	10.1
O=c1n(C2CC2)c2nc(Br)cnc2n1[C@H]1C[C@H](Nc2nc3ccccc3s2)C1 [Example 230, 1-(trans-3-(benzo[d]thiazol-2-ylamino)cyclobutyl)-5-bromo-3-cyclopropyl-1H-imidazo[4,5-b]pyrazin-2(3H)-one]	0.393
O=c1n(C2CC2)c2nc(Br)cnc2n1[C@H]1C[C@H](Nc2ncc3ccc(F)cc3n2)C1 [Example 231, 5-bromo-3-cyclopropyl-1-(trans-3-((7-fluoroquinazolin-2-yl)amino)cyclobutyl)-1H-imidazo[4,5-b]pyrazin-2(3H)-one]	31.5
(R)-1-(trans-3-(benzo[d]thiazol-2-ylamino)cyclobutyl)-3-hydroxy-3-methyl-1H-pyrrolo[2,3-b]pyridin-2(3H)-one and (S)-1-(trans-3-(benzo[d]thiazol-2-ylamino)cyclobutyl)-3-hydroxy-3-methyl-1H-pyrrolo[2,3-b]pyridin-2(3H)-one [Example 181]	2.86
